Values joined by “and” are separate entries in the source; they are usually repeats but may differ in a detail not shown here. Identical values can stand only once.
Key:
[1] = test system: gut T-cell cultures from patients with Crohn's disease; assay type: cell-based, human
transmembrane TNFα = conditions: murine SP2/O myeloma cells with cleavage resistant transmembrane TNFα; Scatchard analyses; cited from earlier work
[2] = test system: gut T-cell cultures from patients with Crohn's disease; assay type: cell-based, human; remark: listed apart in the source
[3] = test system: activated gut T-lymphocytes in Crohn's disease; assay type: cell-based, human

Sequence of transmembrane TNFα (P01375 88-233 limits assumed): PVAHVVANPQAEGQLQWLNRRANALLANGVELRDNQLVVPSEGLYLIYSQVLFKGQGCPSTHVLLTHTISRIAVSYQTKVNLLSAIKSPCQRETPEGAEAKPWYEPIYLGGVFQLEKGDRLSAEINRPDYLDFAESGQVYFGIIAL

Substance: Infliximab: chimeric TNFα antibody with high avidity for transmembrane TNFα, obtained from Centocor
- Proliferation rate (in words) [1]: did not change the proliferation rate
- Infliximab molecules bound per cell (transmembrane TNFα): about 35000 molecules per cell
- Amount of propidium iodide and Annexin-FITC positive cells compared with SEA alone [2]: did not increase
- Apoptosis (in words) [2]: did not induce any apoptosis
- 24 hour production of IFNγ (in words) [3]: reduction
- Production of IFNγ and TNFα (in words) [3]: reduced
- Reduction of IFNγ production by Infliximab [3]: 68% and 43% and 49% and 56%
- Reduction of TNFα production by Infliximab [3]: 97%
